In US7655629B2, “Peptides and their use for the treatment of HIV infections” (priority 2002, dated 2010) one finds IC50 data, which are given here for twelve compounds.

pIC50: −log10 of the molar value. Non-standard residues stand in square brackets, D forms with d. Residues, ends and D or L forms follow the SMILES beside them. Tic = O=C(O)[C@@H]1Cc2ccccc2CN1; dTic = O=C(O)[C@H]1Cc2ccccc2CN1

This assay concerns X4-tropic HIV-1 NL4-3. As to conditions: read-out: IC50 NL4-3; P4-CCR5 cells, HIV-1 NL4-3, peptide 2 h before infection, readout three days after infection. The text has this:
These cells contain the β-galactosidase reporter gene under the control of the HIV-1 promoter. Thus, activation of the β-galactosidase reporter gene allows to measure the efficiency of HIV-1 infection and thus to quantitate the potency of HIV-1 inhibitors (Detheux M. et al., 2000; Journal of Experimental Medicine 192, 1501-1508; Münch et al., 2002; Antimicrobial Agents and Chemotherapy 46, 982-990).
To perform a typical infection assay, P4-CCR5 cells (Charneau et al., 1994; Journal of Molecular Biology 241, 651-662; Charneau et al., Virology. 1994 205, 247-53) were kept in RPMI 1640 medium supplemented with 10 volume % FCS. This cell line coexpresses CD4 and both HIV-1 coreceptors CCR5 and CXCR4 and contains the β-galactosidase gene under the control of the HIV-1 promoter. Virus stocks were generated by the calcium coprecipitation method as described (Detheux et al., J Exp Med. 192:1501-8; 2000), and the p24 antigen levels were quantitated with an HIV p24 ELISA kit obtained through the NIH AIDS Reagent Program. Cells were seeded in flat-bottomed 96-well dishes, cultured overnight, and incubated with the different doses of peptide for 2 h before infection with virus containing 1 ng of p24 antigen in a total volume of […] of medium. After overnight incubation, cells were washed twice and cultivated in fresh culture medium without inhibitory peptide. Three days after infection the cells were lysed, and infectivity was quantitated using the Galacto-Light Plus™ chemiluminescence reporter assay kit (Tropix, Bedford, Mass.) as recommended by the manufacturer. All infections were performed in quintuplicate.
Broadly, the pIC50 is −log10 of the IC50, conventionally taken in molar units. Turning to `CC[C@H](C)[C@H](NC(=O)[C@H](C)NC(=O)[C@H](CCC(=O)O)NC(=O)[C@@H](N)CC(C)C)C(=O)N1CCC[C@H]1C(=O)N[C@@H](CCSC)C(=O)N[C@@H](CO)C(=O)N[C@H](C(=O)N1CCC[C@H]1C(=O)N1CCC[C@@H]1C(=O)N[C@@H](CCC(=O)O)C(=O)N[C@@H](Cc1ccccc1)C(=O)N[C@@H](CC(C)C)C(=O)N[C@@H](Cc1ccccc1)C(=O)NCC(=O)N[C@@H](CCCCN)C(=O)N1CCC[C@H]1C(=O)N[C@@H](C)C(=O)N[C@@H](Cc1ccccc1)C(=O)N[C@H](C(=O)N[C@@H](Cc1ccccc1)C(=O)O)C(C)C)[C@@H](C)CC` [VIR-376, LEAIPMSIPpEFLFGKPAFVF] (H-LEAIPMSIP[dP]EFLFGKPAFVF-OH), the pIC50 was 6.25.

On to `CC[C@H](C)[C@H](NC(=O)[C@H](C)NC(=O)[C@H](CCC(=O)O)NC(=O)[C@@H](N)CC(C)C)C(=O)N1CCC[C@H]1C(=O)N[C@@H](CCSC)C(=O)N[C@@H](CO)C(=O)N[C@H](C(=O)N1CCC[C@H]1C(=O)N1CCC[C@@H]1C(=O)N[C@@H](CCC(=O)O)C(=O)N[C@@H](Cc1ccccc1)C(=O)N[C@@H](CC(C)C)C(=O)N[C@@H](Cc1ccccc1)C(=O)NCC(=O)N[C@@H](CCCCN)C(=O)N1CCC[C@H]1C(=O)NCC(=O)N[C@@H](Cc1ccccc1)C(=O)N[C@H](C(=O)N[C@@H](Cc1ccccc1)C(=O)O)C(C)C)[C@@H](C)CC` [VIR-377, LEAIPMSIPpEFLFGKPGFVF] (H-LEAIPMSIP[dP]EFLFGKPGFVF-OH), for which the negative-log IC50 (pIC50) is 6.31.

Take `CC[C@H](C)[C@H](NC(=O)[C@H](C)NC(=O)[C@H](CCC(=O)O)NC(=O)[C@@H](N)CC(C)C)C(=O)N1CCC[C@H]1C(=O)N[C@@H](CCSC)C(=O)N[C@@H](CO)C(=O)N[C@H](C(=O)N1CCC[C@H]1C(=O)N1CCC[C@@H]1C(=O)N[C@@H](CCC(=O)O)C(=O)N[C@@H](Cc1ccccc1)C(=O)N[C@@H](CC(C)C)C(=O)N[C@@H](Cc1ccccc1)C(=O)NCC(=O)N[C@@H](CCCCN)C(=O)N1CCC[C@H]1C(=O)N[C@@H](Cc1ccccc1)C(=O)N[C@@H](Cc1ccccc1)C(=O)N[C@H](C(=O)N[C@@H](Cc1ccccc1)C(=O)O)C(C)C)[C@@H](C)CC` [VIR-380, LEAIPMSIPpEFLFGKPFFVF] (H-LEAIPMSIP[dP]EFLFGKPFFVF-OH): the pIC50 was 6.27.

For `CC[C@H](C)[C@H](NC(=O)[C@H](C)NC(=O)[C@H](CCC(=O)O)NC(=O)[C@@H](N)CC(C)C)C(=O)N1CCC[C@H]1C(=O)N[C@@H](CCSC)C(=O)N[C@@H](CO)C(=O)N[C@H](C(=O)N1CCC[C@H]1C(=O)N1CCC[C@@H]1C(=O)N[C@@H](CCC(=O)O)C(=O)N[C@@H](Cc1ccccc1)C(=O)N[C@@H](CC(C)C)C(=O)N[C@@H](Cc1ccccc1)C(=O)NCC(=O)N[C@@H](CCCCN)C(=O)N1CCC[C@H]1C(=O)N[C@@H](CCC(=O)O)C(=O)N[C@@H](Cc1ccccc1)C(=O)N[C@H](C(=O)N[C@@H](Cc1ccccc1)C(=O)O)C(C)C)[C@@H](C)CC` [VIR-384, LEAIPMSIPpEFLFGKPEFVF] (H-LEAIPMSIP[dP]EFLFGKPEFVF-OH), the pIC50 is 6.21.

Regarding `CC[C@H](C)[C@H](NC(=O)[C@H](C)NC(=O)[C@H](CCC(=O)O)NC(=O)[C@@H](N)CC(C)C)C(=O)N1CCC[C@H]1C(=O)N[C@@H](CCSC)C(=O)N[C@@H](CO)C(=O)N[C@@H](C)C(=O)N1CCC[C@H]1C(=O)N1CCC[C@@H]1C(=O)N[C@@H](CCC(=O)O)C(=O)N[C@@H](Cc1ccccc1)C(=O)N[C@@H](CC(C)C)C(=O)N[C@@H](Cc1ccccc1)C(=O)NCC(=O)N[C@@H](CCCCN)C(=O)N1CCC[C@H]1C(=O)N[C@@H](Cc1ccccc1)C(=O)N[C@H](C(=O)N[C@@H](Cc1ccccc1)C(=O)O)C(C)C` [VIR-396, LEAIPMSAPpEFLFGKPFVF] (H-LEAIPMSAP[dP]EFLFGKPFVF-OH), the pIC50 is 6.20.

Turning to `CC[C@H](C)[C@H](NC(=O)[C@H](C)NC(=O)[C@H](CCC(=O)O)NC(=O)[C@@H](N)CC(C)C)C(=O)N1CCC[C@H]1C(=O)N[C@@H](CCSC)C(=O)N[C@@H](CO)C(=O)N[C@@H](Cc1ccccc1)C(=O)N1CCC[C@H]1C(=O)N1CCC[C@@H]1C(=O)N[C@@H](CCC(=O)O)C(=O)N[C@@H](Cc1ccccc1)C(=O)N[C@@H](CC(C)C)C(=O)N[C@@H](Cc1ccccc1)C(=O)NCC(=O)N[C@@H](CCCCN)C(=O)N1CCC[C@H]1C(=O)N[C@@H](Cc1ccccc1)C(=O)N[C@H](C(=O)N[C@@H](Cc1ccccc1)C(=O)O)C(C)C` [VIR-400, LEAIPMSFPpEFLFGKPFVF] (H-LEAIPMSFP[dP]EFLFGKPFVF-OH), the negative logarithm of the IC50 (pIC50) was 6.23.

Regarding `CC[C@H](C)[C@H](NC(=O)[C@H](C)NC(=O)[C@H](CCC(=O)O)NC(=O)[C@@H](N)CC(C)C)C(=O)N1CCC[C@H]1C(=O)N[C@@H](CCSC)C(=O)NCC(=O)N[C@H](C(=O)N1CCC[C@H]1C(=O)N1CCC[C@@H]1C(=O)N[C@@H](CCC(=O)O)C(=O)N[C@@H](Cc1ccccc1)C(=O)N[C@@H](CC(C)C)C(=O)N[C@@H](Cc1ccccc1)C(=O)NCC(=O)N[C@@H](CCCCN)C(=O)N1CCC[C@H]1C(=O)N[C@@H](Cc1ccccc1)C(=O)N[C@H](C(=O)N[C@@H](Cc1ccccc1)C(=O)O)C(C)C)[C@@H](C)CC` [VIR-416, LEAIPMGIPpEFLFGKPFVF] (H-LEAIPMGIP[dP]EFLFGKPFVF-OH), the negative-log IC50 (pIC50) was 6.43.

For the compound `CC[C@H](C)[C@H](NC(=O)[C@H](CCCCN)NC(=O)[C@H](CCC(=O)O)NC(=O)[C@@H](N)CC(C)C)C(=O)N1CCC[C@H]1C(=O)N[C@@H](CCSC)C(=O)NCC(=O)N[C@H](C(=O)N1CCC[C@H]1C(=O)N1CCC[C@@H]1C(=O)N[C@@H](CCC(=O)O)C(=O)N[C@@H](Cc1ccccc1)C(=O)N[C@@H](CC(C)C)C(=O)N[C@@H](Cc1ccccc1)C(=O)NCC(=O)N[C@@H](CCCCN)C(=O)N1CCC[C@H]1C(=O)N[C@@H](Cc1ccccc1)C(=O)N[C@H](C(=O)N[C@@H](Cc1ccccc1)C(=O)O)C(C)C)[C@@H](C)CC` [VIR-418, LEKIPMGIPpEFLFGKPFVF] (H-LEKIPMGIP[dP]EFLFGKPFVF-OH), the pIC50 was 6.30.

Consider `CC[C@H](C)[C@H](NC(=O)[C@@H]1CCCN1C(=O)[C@@H](NC(=O)[C@H](C)NC(=O)[C@H](CCC(=O)O)NC(=O)[C@@H](N)CC(C)C)[C@@H](C)CC)C(=O)N[C@@H](CO)C(=O)N[C@H](C(=O)N1CCC[C@H]1C(=O)N1CCC[C@@H]1C(=O)N[C@@H](CCC(=O)O)C(=O)N[C@H](C(=O)N1Cc2ccccc2C[C@@H]1C(=O)N[C@@H](Cc1ccccc1)C(=O)N[C@@H](CC(N)=O)C(=O)N[C@@H](CCCCN)C(=O)N1CCC[C@H]1C(=O)N[C@@H](Cc1ccccc1)C(=O)N[C@H](C(=O)N[C@@H](Cc1ccccc1)C(=O)O)C(C)C)C(C)C)[C@@H](C)CC` [VIR-445, LEAIPISIPpEV(D-Tic)FNKPFVF] (H-LEAIPISIP[dP]EV[dTic]FNKPFVF-OH), for which the pIC50 was 6.65.

Turning to `CC[C@H](C)[C@H](NC(=O)[C@@H]1CCCN1C(=O)[C@@H](NC(=O)[C@H](C)NC(=O)[C@H](CCC(=O)O)NC(=O)[C@@H](N)CC(C)C)[C@@H](C)CC)C(=O)N[C@@H](CO)C(=O)N[C@H](C(=O)N1CCC[C@H]1C(=O)N1CCC[C@@H]1C(=O)N[C@@H](CCC(=O)O)C(=O)N[C@H](C(=O)N[C@@H](C)C(=O)N[C@@H](Cc1ccccc1)C(=O)N[C@@H](CC(N)=O)C(=O)N[C@@H](CCCCN)C(=O)N1Cc2ccccc2C[C@H]1C(=O)N[C@@H](Cc1ccccc1)C(=O)N[C@H](C(=O)N[C@@H](Cc1ccccc1)C(=O)O)C(C)C)C(C)C)[C@@H](C)CC` [VIR-447, LEAIPISIPpEVAFNK(L-Tic)FVF] (H-LEAIPISIP[dP]EVAFNK[Tic]FVF-OH), the pIC50 was 6.21.

As for `CC[C@H](C)[C@H](NC(=O)[C@H](CC(=O)O)NC(=O)[C@H](CCC(=O)O)NC(=O)[C@@H](N)CC(C)C)C(=O)N1CCC[C@H]1C(=O)N[C@@H](CCSC)C(=O)N[C@@H](CO)C(=O)N[C@H](C(=O)N1CCC[C@H]1C(=O)N1CCC[C@@H]1C(=O)N[C@@H](CCC(=O)O)C(=O)N[C@H](C(=O)N1Cc2ccccc2C[C@H]1C(=O)N[C@@H](Cc1ccccc1)C(=O)N[C@@H](CC(N)=O)C(=O)N[C@@H](CCCCN)C(=O)N1CCC[C@H]1C(=O)N[C@@H](Cc1ccccc1)C(=O)N[C@H](C(=O)N[C@@H](Cc1ccccc1)C(=O)O)C(C)C)C(C)C)[C@@H](C)CC` [VIR-452, LEDIPMSIPpEV(L-Tic)FNKPFVF] (H-LEDIPMSIP[dP]EV[Tic]FNKPFVF-OH), the negative-log IC50 (pIC50) is 6.74.

For `CC[C@H](C)[C@H](NC(=O)[C@@H]1CCCN1C(=O)[C@@H](NC(=O)[C@H](CC(=O)O)NC(=O)[C@H](CCC(=O)O)NC(=O)[C@@H](N)CC(C)C)[C@@H](C)CC)C(=O)NCC(=O)N[C@H](C(=O)N1CCC[C@H]1C(=O)N1CCC[C@@H]1C(=O)N[C@@H](CCC(=O)O)C(=O)N[C@@H](Cc1ccccc1)C(=O)N[C@@H](CC(C)C)C(=O)N[C@@H](Cc1ccccc1)C(=O)N[C@@H](CC(N)=O)C(=O)N[C@@H](CCCCN)C(=O)N1CCC[C@H]1C(=O)N[C@@H](Cc1ccccc1)C(=O)N[C@H](C(=O)N[C@@H](Cc1ccccc1)C(=O)O)C(C)C)[C@@H](C)CC` [VIR-479, LEDIPIGIPpEFLFNKPFVF] (H-LEDIPIGIP[dP]EFLFNKPFVF-OH), the negative logarithm of the IC50 (pIC50) is 6.32.
